# Reference: patent publication US20240382494A1, “THERAPEUTIC COMPOUNDS” (priority 2023, published 2024)
# Like-named read-outs stand apart in the source and are kept apart here.
# What was measured:
# [1] = molecular target: SARS-CoV-2 PLpro (Severe acute respiratory syndrome coronavirus 2, UniProt P0DTD1); experiment: FRET-based PLpro enzymatic assay; type: biochemical
# Experimental: The SARS-CoV-2 PL^pro enzymatic assays were carried out as follows. The assay was assembled in 96-well plates with 100 μl of 200 nM PL^Pro protein in PL^Pro reaction buffer [50 mM Hepes (pH 7.5), 0.01% Triton X-100, and 5 mM DTT]. Then, 1 μl of testing compound at various concentrations was added to each well and incubated at 30° C. for 30 minutes. The enzymatic reaction was initiated by adding 1 μl of 1 mM FRET substrate (the final substrate concentration is 10 μM). The reaction was monitored in a Cytation 5 image reader with filters for excitation at 360/40 nm and emission at 460/40 nm at 30° C. for 1 hour. The initial velocity of the enzymatic reaction with and without testing compounds was calculated by linear regression for the first 15 minutes of the kinetic progress curve. The IC50 values were calculated by plotting the initial velocity against various concentrations of testing compounds with a dose-response function in Prism 8 software.
# [2] = Cytotoxicity assay in Vero E6 cells (neutral red uptake); type: cell-based; details: African green monkey
# Experimental: Briefly, 80.000 cells/ml of the tested cell lines were dispensed into 96-well cell culture plates at 100 μl per well Twenty-four hours later, the growth medium was removed and washed with 150 μl of PBS buffer. Two hundred microliters of fresh serum-free medium containing serial diluted compounds was added to each well. After incubating for 2 days at 37° C., the medium was removed and replaced with 100 μl of DMEM medium containing neutral red (40 μg/ml) and incubated for 2 to 4 hours at 37° C. The amount of neutral red taken up was determined by measuring the absorbance at 540 nm using a Multiskan FC Microplate Photometer (Thermo Fisher Scientific) The CC50 values were calculated from best-fit dose-response curves with variable slope in Prism 8.
# [3] = 200 nM PLpro, 10 μM FRET substrate, 30 min preincubation at 30° C., read-out: IC50
# [4] = Vero E6 cells, 2 days at 37° C., neutral red uptake, read-out: Vero CC50
Structure (SMILES),"IC50 [1, 3] [µM]","CC50 at 2 days [2, 4] [µM]",IC50 [1] [µM],CC50 at 2 days [2] [µM]
"Cc1ccc(N2CCC(N(C)C)CC2)cc1C(=O)N[C@H](C)c1cc(-c2cnn(C)c2)nc2ccccc12 [Example 87, (R)-5-(4-(dimethylamino)piperidin-1-yl)-2-methyl-N-(1-(2-(1-methyl-1H-pyrazol-4-yl)quinolin-4-yl)ethyl)benzamide]",1 to 5,73.8 ± 5.88,,
"CCn1ccc(-c2cc([C@@H](C)NC(=O)c3cc(N4C[C@H]5C[C@@H]4CN5C)ccc3C)c3ccccc3n2)n1 [Example 107, N—((R)-1-(2-(1-ethyl-1H-pyrazol-3-yl)quinolin-4-yl)ethyl)-2-methyl-5-((1R,4R)-5-methyl-2,5-diazabicyclo[2.2.1]heptan-2-yl)benzamide]",< 0.5,22.3 ± 1.39,,
"Cc1ccc(OCCN(C)C)cc1C(=O)N[C@H](C)c1cc(-c2cnn(C(C)C)c2)nc2ccccc12 [Example 14, (R)-5-(2-(dimethylamino)ethoxy)-N-(1-(2-(1-isopropyl-1H-pyrazol-4-yl)quinolin-4-yl)ethyl)-2-methylbenzamide]",< 0.5,37.7 ± 5.87,,
"Cc1ccc(N(C)C2CN(C)C2)cc1C(=O)N[C@H](C)c1cc(-c2cnn(C)c2)nc2ccccc12 [Example 88, (R)-2-methyl-5-(methyl(1-methylazetidin-3-yl)amino)-N-(1-(2-(1-methyl-1H-pyrazol-4-yl)quinolin-4-yl)ethyl)benzamide]",1 to 5,97.4 ± 6.51,,
"Cc1ccc(OCCN(C)C)cc1C(=O)N[C@H](C)c1cc(-c2ccc3cn[nH]c3c2)nc2ccccc12 [Example 61, (R)—N-(1-(2-(1H-indazol-6-yl)quinolin-4-yl)ethyl)-5-(2-(dimethylamino)ethoxy)-2-methylbenzamide]",> 5,25.7 ± 2.09,,
"Cc1ccc(O[C@H]2CCN(C)C2)cc1C(=O)N[C@H](C)c1cc(-c2cnn(C)c2)nc2ccccc12 [Example 82, 2-methyl-N—((R)-1-(2-(1-methyl-1H-pyrazol-4-yl)quinolin-4-yl)ethyl)-5-(((S)-1-methyl-pyrrolidin-3-yl)oxy)benzamide]",< 0.5,48.3 ± 2.9,,
"COc1cc(-c2cc([C@@H](C)NC(=O)c3cc(OCCN(C)C)ccc3C)c3ccccc3n2)cs1 [Example 68, (R)-5-(2-(dimethylamino)ethoxy)-N-(1-(2-(5-methoxythiophene-3-yl)quinolin-4-yl)ethyl)-2-methylbenzamide]",< 0.5,13.9 ± 4.32,,
"Cc1ccc(OCCN(C)C)cc1C(=O)N[C@H](C)c1cc(Cl)nc2ccccc12 [Example 11, (R)—N-(1-(2-chloroquinolin-4-yl)ethyl)-5-(2-(dimethylamino)-ethoxy)-2-methylbenzamide]",0.5 to 1,101 ± 11.3,,
"Cc1ccc(OCCN(C)C)cc1C(=O)N[C@H](C)c1cc(-c2ccc(CN3CCCC3)s2)nc2ccccc12 [Example 51, (R)-5-(2-(dimethylamino)ethoxy)-2-methyl-N-(1-(2-(5-(pyrrolidin-1-ylmethyl)thiophen-2-yl)quinolin-4-yl)ethyl)benzamide]",< 0.5,27.1 ± 14,,
"Cc1ccc(OCCN(C)C)cc1C(=O)N[C@H](C)c1cc(-c2cnn(C(F)F)c2)nc2ccccc12 [Example 3, (R)—N-(1-(2-(1-(difluoromethyl)-1H-pyrazol-4-yl)quinolin-4-yl)ethyl)-5-(2-(dimethylamino)ethoxy)-2-methylbenzamide]",< 0.5,15.2 ± 2.54,,
"Cc1ccc(OCCN(C)C)cc1C(=O)N[C@@H](C)c1cc(-c2ccnn2C)nc2ccccc12 [Example 21, (S)-5-(2-(dimethylamino)ethoxy)-2-methyl-N-(1-(2-(1-methyl-1H-pyrazol-5-yl)quinolin-4-yl)ethyl)benzamide]",0.5 to 1,64.7 ± 8.94,,
"Cc1ccc(N2CCC3(CC2)CN(C)C3)cc1C(=O)N[C@H](C)c1cc(-c2cnn(C)c2)nc2ccccc12 [Example 92, (R)-2-methyl-N-(1-(2-(1-methyl-1H-pyrazol-4-yl)quinolin-4-yl)ethyl)-5-(2-methyl-2,7-diazaspiro[3.5]nonan-7-yl)benzamide]",0.5 to 1,76.5 ± 2.18,,
"Cc1ccc(OCCN(C)C)cc1C(=O)N[C@H](C)c1cc(-c2cnn(C3CCC3)c2)nc2ccccc12 [Example 64, (R)—N-(1-(2-(1-cyclobutyl-1H-pyrazol-4-yl)quinolin-4-yl)ethyl)-5-(2-(dimethylamino)ethoxy)-2-methylbenzamide]",< 0.5,25.3 ± 5.82,,
"Cc1ccc(OCCN(C)C)cc1C(=O)N[C@H](C)c1cc(-c2ccnn2C)nc2ccccc12 [Example 13, (R)-5-(2-(dimethylamino)ethoxy)-2-methyl-N-(1-(2-(1-methyl-1H-pyrazol-5-yl)quinolin-4-yl)ethyl)benzamide]",< 0.5,60 ± 8.43,,
"CCn1ccc(-c2cc([C@@H](C)NC(=O)c3cc(N4CC5CCC(C4)N5C)ccc3C)c3ccccc3n2)n1 [Example 106, N—((R)-1-(2-(1-ethyl-1H-pyrazol-3-yl)quinolin-4-yl)ethyl)-2-methyl-5-(8-methyl-3,8-diazabicyclo[3.2.1]octan-3-yl)benzamide]",,,< 0.5,31.3 ± 7.45
"Cc1ccc(OC2CN(C)C2)cc1C(=O)N[C@H](C)c1cc(-c2cnn(C)c2)nc2ccccc12 [Example 90, (R)-2-methyl-N-(1-(2-(1-methyl-1H-pyrazol-4-yl)quinolin-4-yl)ethyl)-5-((1-methylazetidin-3-yl)oxy)benzamide]",< 0.5,72.5 ± 2.08,,
"COCCn1cc(-c2cc([C@@H](C)NC(=O)c3cc(OCCN(C)C)ccc3C)c3ccccc3n2)cn1 [Example 6, (R)-5-(2-(dimethylamino)ethoxy)-N-(1-(2-(1-(2-methoxyethyl)-1H-pyrazol-4-yl)quinolin-4-yl)ethyl)-2-methylbenzamide]",< 0.5,200 ± 86.4,,
"Cc1ccc(C2=CCN(C)CC2)cc1C(=O)N[C@H](C)c1cc(-c2cnn(C)c2)nc2ccccc12 [Example 86, (R)-2-methyl-5-(1-methyl-1,2,3,6-tetrahydropyridin-4-yl)-N-(1-(2-(1-methyl-1H-pyrazol-4-yl)quinolin-4-yl)ethyl)benzamide]",1 to 5,92.7 ± 4.59,,
"Cc1ccc(OCCN(C)C)cc1C(=O)N[C@H](C)c1cc(-c2cncs2)nc2ccccc12 [Example 5, (R)-5-(2-(dimethylamino)ethoxy)-2-methyl-N-(1-(2-(thiazol-5-yl)quinolin-4-yl)ethyl)benzamide]",< 0.5,44.7 ± 11.7,,
"Cc1ccc(OCCN(C)C)cc1C(=O)N[C@H](C)c1cc(-n2cncn2)nc2ccccc12 [Example 47, (R)—N-(1-(2-(1H-1,2,4-triazol-1-yl)quinoline 4-yl)ethyl)-5-(2-(dimethylamino)ethoxy)-2-methylbenzamide]",0.5 to 1,17.5 ± 5.23,,
"Cc1ccc(N(C)C2(C)CN(C)C2)cc1C(=O)N[C@H](C)c1cc(-c2cnn(C)c2)nc2ccccc12 [Example 93, (R)-5-((1,3-dimethylazetidin-3-yl)(methyl)amino)-2-methyl-N-(1-(2-(1-methyl-1H-pyrazol-4-yl)quinolin-4-yl)ethyl)benzamide]",1 to 5,129 ± 2.32,,
"Cc1ccc(OCCN(C)C)cc1C(=O)N[C@H](C)c1cc(-c2cnn(CC(N)=O)c2)nc2ccccc12 [Example 24, (R)—N-(1-(2-(1-(2-amino-2-oxoethyl)-1H-pyrazol-4-yl)quinolin-4-yl)ethyl)-5-(2-(dimethylamino)ethoxy)-2-methylbenzamide]",< 0.5,> 250,,
"Cc1ccc(OCCN(C)C)cc1C(=O)N[C@H](C)c1cc(-c2cnn(CC(=O)N3CCCC3)c2)nc2ccccc12 [Example 69, (R)-5-(2-(dimethylamino)ethoxy)-2-methyl-N-(1-(2-(1-(2-oxo-2-(pyrrolidin-1-yl)ethyl)-1H-pyrazol-4-yl)quinolin-4-yl)ethyl)benzamide]",< 0.5,26.4 ± 4.5,,
"Cc1ccc(OCCN(C)C)cc1C(=O)N[C@H](C)c1cc(-c2cnn(C(F)(F)F)c2)nc2ccccc12 [Example 63, (R)-5-(2-(dimethylamino)ethoxy)-2-methyl-N-(1-(2-(1-(trifluoro-methyl)-1H-pyrazol-4-yl)quinolin-4-yl)ethyl)benzamide]",< 0.5,17.7 ± 2.04,,
"Cc1ccc(OCCN(C)C)cc1C(=O)N[C@H](C)c1cc(-c2cncn2C)nc2ccccc12 [Example 66, (R)-5-(2-(dimethylamino)ethoxy)-2-methyl-N-(1-(2-(1-methyl-1H-imidazol-5-yl)quinolin-4-yl)ethyl)benzamide]",< 0.5,79.5 ± 8.62,,
"Cc1ccc(OCCN(C)C)cc1C(=O)N[C@@H](C)c1cc(-c2cccs2)nc2ccccc12 [Example 2, (S)-5-(2-(dimethylamino)ethoxy)-2-methyl-N-(1-(2-(thiophen-2-yl)quinolin-4-yl)ethyl)benzamide]",1 to 5,11.4 ± 0.79,,
